# Assay results reported in US8334261B2, “Osteopenia animal model” (Oriental Yeast Co., Ltd., priority 2006, dated 2012).
# Key:
# Type in all cases: in vivo, mouse
# mice = experiment: Double-dose administration of GST-RANKL at 0.5, 1 and 2 mg/kg; details: 2 mg/kg compared with 0.5 mg/kg and 1 mg/kg
# [1] = tested on: GST-RANKL-administered 7-week-old female C57BL/6 mice; experiment: Comparison of a plurality of bisphosphonates in GST-RANKL mice; details: for femur bone density decrease vs PBS group: GST-RANKL 1 mg/kg 3 times
# Experimental: GST-RANKL was intraperitoneally administered 3 times at 1 mg/kg every 24 hours. The femur, tibia, and serum were collected from each mouse 1.5 hours after the 3rd GST-RANKL administration. Measurement of TRAP-5b, calcium (Ca), and alkaline phosphatase (ALP) in the serum was carried out. Each femur was subjected to bone density measurement with pQCT and image analysis with micro CT.
# [2] = tested on: 7-week-old female C57BL/6N mice; experiment: Evaluation of a bone mass increase with PTH (GST-RANKL, ovariectomy); details: for femur bone density decrease vs PBS+Sham: GST-RANKL+Sham
# Experimental: GST-RANKL was administered twice to groups of 7-week-old female C57BL/6N mice at 1 mg/kg every 24 hours. Ovariectomy was performed 24 hours after the 2nd administration. In addition, parathyroid hormone (PTH) was subcutaneously administered thereto at 160 μg/kg from 24 hours after the ovariectomy for 10 consecutive days. Further, a group obtained by PBS administration and sham operation (Sham) was designated as a control group for comparison. The serum markers and the femur bone density were measured.
# [3] = tested on: 7-week-old female C57BL/6N mice; experiment: Single-dose administration of GST-RANKL; details: for femur bone density decrease vs control: single dose
# Experimental: The bone resorption markers and the osteogenesis markers in the serum were measured 12, 24, and 48 hours thereafter. Blood sampling was carried out before and immediately after GST-RANKL administration and 2, 4, 8, 12, 24, 48, and 72 hours after administration, followed by measurement of the serum human RANKL concentration by ELISA. In addition, 24 and 48 hours after administration, the femur bone density was measured with pQCT.
# [4] = tested on: GST-RANKL-administered 7-week-old female C57BL/6N mice; experiment: Evaluation of a bone mass increase with low-dose PTH in GST-RANKL mice; details: GST-RANKL 1 mg/kg i.p. 2 times
# Experimental: GST-RANKL was intraperitoneally administered 2 times to groups of 7-week-old female C57BL/6N mice at 1 mg/kg every 24 hours. PTH was subcutaneously administered thereto at 40 or 80 μg/kg from 24 hours after the 2nd administration every 24 hours for 10 consecutive days. In addition, PBS was administered to a group serving as the control group for the GST-RANKL and PTH administration groups for comparison. The serum and femur were collected from each mouse 24 hours after the end of administration for 10 days.
# The serum collected from each mouse was subjected to measurement of serum bone resorption markers (Ca and TRAP-5b) and an osteogenesis marker (ALP). Each femur was subjected to measurement of the total bone density, the cortical bone density, the cortical bone thickness, the cortical bone mineral content, and the cortical bone density in the diaphysis with pQCT at points 0.6, 0.8, and 1.0 mm […] the distal growth plate on the proximal side. In addition, image analysis was carried out with micro CT.
# [5] = tested on: 7-week-old female C57BL/6N mice; experiment: RANKL administration test (213, 426, 852 nmol GST-RANKL)
# Experimental: GST-RANKL was separately administered 3 times via an intraperitoneal route to groups of 7-week-old female C57BL/6N mice (10 individuals each) at doses of 213 nmol, 426 nmol, and 852 nmol every 24 hours. Exsanguination was performed 1.5 hours after the 3rd administration. A group to which PBS was administered in the same manner as above was used as a control group for comparison. 213 nmol, 426 nmol and 852 nmol of GST-RANKL correspond to 10 μg, 20 μg and 40 μg, respectively.
# The exsanguinated blood was subjected to measurement of serum bone resorption parameters (calcium, CTx, TRAP-5b) and serum osteogenesis parameters (osteocalcin and alkaline phosphatase (ALP)). Calcium was measured by the OCPC method (WAKO, 272-21801). CTx (Nordic Bioscience Diagnostics), TRAP-5b (IDS Ltd, SB-TR103), and osteocalcin (Biomedical Technologies Inc.) were measured by ELISA. ALP was measured by the Bessey-Lowry method (WAKO, 274-04401).
# The femur and the tibia were collected from each exsanguinated mouse. Regarding the femur, the cancellous bone was subjected to bone density measurement with the use of pQCT at points 0.6 mm, 0.8 mm, and 1.0 mm from the distal growth plate on the proximal side. Measurement values were compared with those for a control group by the Dunnett method for testing.
# [6] = tested on: 12-week-old male and female C57BL/6N mice; experiment: GST-RANKL administration to 12-week-old mice
# Experimental: GST-RANKL was intraperitoneally administered 3 times to 12-week-old male and female C57BL/6N mice at 1 mg/kg every 24 hours. The serum and femur were collected from each mouse 1.5 hours after the 3rd administration. The serum collected from each mouse was subjected to measurement of serum bone resorption markers (Ca and TRAP-5b) and an osteogenesis marker (ALP). Each femur was subjected to bone density measurement by dual energy X-ray absorptiometry (DEXA) and image analysis with micro CT.
# [7] = 12-week-old male, no significant difference
substance,measurement,setting,value
"GST-RANKL: fused protein of Glutathione S-transferase with human RANKL residues 140-317, expressed in Escherichia coli, 47.0 kDa",bone mass decreasing effects,mice,promoted
same,femur bone density decrease vs PBS group,[1]; 0.6 mm,7%
same,femur bone density decrease vs PBS group,[1]; 0.8 mm,13%
same,femur bone density decrease vs PBS group,[1]; 1.0 mm,18%
same,serum TRAP-5b concentration increase,"[1]; GST-RANKL 1 mg/kg i.p. 3 times, no significant difference",approximately 40%
same,femur bone density vs PBS+Sham,[2]; GST-RANKL+OVX group,No bone density decrease was observed
same,femur bone density decrease vs PBS+Sham,[2]; 0.6 mm,approximately 17%
same,femur bone density decrease vs PBS+Sham,[2]; 0.8 mm,~15%
same,femur bone density decrease vs PBS+Sham,[2]; 1.0 mm,~18%
same,serum Ca concentration,[2]; every GST-RANKL administration group,no changes
same,serum ALP concentration decrease,"[2]; every GST-RANKL administration group, 1 mg/kg twice",approximately 24%
same,serum ALP concentration decrease,[3]; single dose 1 mg/kg,approximately 30%
same,serum Ca concentration,[3]; single dose 1 mg/kg i.p.,no changes
same,serum human RANKL concentration,"[3]; single dose 1 mg/kg i.p., 24 hours later",undetectable
same,time of peak serum human RANKL concentration after administration,"[3]; single dose 1 mg/kg i.p., ELISA",4 h
same,"serum TRAP-5b concentration, fold as high as control","[3]; single dose 1 mg/kg, 12 hours after administration",approximately 1.7 fold
same,femur bone density decrease vs control,"[3]; 24 hours, 0.6 mm",approximately 4%
same,femur bone density decrease vs control,"[3]; 24 hours, 0.8 mm",approximately 9%
same,femur bone density decrease vs control,"[3]; 24 hours, 1.0 mm",approximately 12%
same,femur bone density decrease vs control,"[3]; 48 hours, 0.6 mm",approximately 5%
same,femur bone density decrease vs control,"[3]; 48 hours, 0.8 mm",approximately 9%
same,femur bone density decrease vs control,"[3]; 48 hours, 1.0 mm",approximately 15%
same,"cortical bone density in the diaphysis, decrease vs PBS control",[4],3%
same,serum CTx concentration,[5]; 213 nmol,No significant increases
same,serum TRAP-5b concentration,[5]; 213 nmol,No significant increases
same,serum calcium concentration,"[5]; 213 nmol i.p. 3 times, p<0.05",significantly increased
same,femur bone density decrease (pQCT),"[5]; 213 nmol, 0.6 mm",11%
same,femur bone density decrease (pQCT),"[5]; 213 nmol, 0.8 mm",23%
same,femur bone density decrease (pQCT),"[5]; 213 nmol, 1.0 mm",23%
same,femur bone density decrease (pQCT),"[5]; 426 nmol, 0.6 mm",19%
same,femur bone density decrease (pQCT),"[5]; 426 nmol, 0.8 mm",29%
same,femur bone density decrease (pQCT),"[5]; 426 nmol, 1.0 mm",31%
same,serum CTx concentration,"[5]; 426 nmol, p<0.01",significant increases
same,serum TRAP-5b concentration,"[5]; 426 nmol, p<0.01",significant increases
same,serum calcium concentration,"[5]; 426 nmol, p<0.01",obviously increased
same,femur bone density decrease (pQCT),"[5]; 852 nmol, 0.6 mm",30%
same,femur bone density decrease (pQCT),"[5]; 852 nmol, 0.8 mm",42%
same,femur bone density decrease (pQCT),"[5]; 852 nmol, 1.0 mm",44%
same,serum CTx concentration,"[5]; 852 nmol, p<0.01",significant increases
same,serum TRAP-5b concentration,"[5]; 852 nmol, p<0.01",significant increases
same,serum calcium concentration,"[5]; 852 nmol, p<0.01",obviously increased
same,image analysis with micro CT,[5]; 213 to 852 nmol,dose-dependent decreases in the bone density
same,total bone density decrease (DEXA) vs control,[6]; 12-week-old female,6%
same,serum ALP concentration vs PBS group,"[6]; 12-week-old female, no significant difference",tended to increase
same,serum TRAP-5b concentration vs PBS group,"[6]; 12-week-old female, p<0.01",significantly increased
same,serum Ca concentration vs PBS group,"[6]; 12-week-old female, p<0.05",significantly increased
same,total bone density decrease (DEXA) vs control,[6]; 12-week-old male,8%
same,serum TRAP-5b concentration vs PBS group,"[6]; 12-week-old male, 1 mg/kg i.p. 3 times, p<0.05",significantly increased
same,serum ALP concentration vs PBS group,[6]; [7],tended to increase
same,serum Ca concentration vs PBS group,[6]; [7],tended to increase
